Patent US20190337910A1, “ALLOSTERIC MODULATORS OF NICOTINIC ACETYLCHOLINE RECEPTORS” (MERCK SHARP & DOHME CORP., priority 2016, published 2019)
Where two headings read alike, the source gives them in different places.

Target: T1, human α7 nAChR stably expressed in a HEK cell line (with human RIC-3) (Homo sapiens, UniProt P36544)
T1 construct: PrecisION hnAChR α7/RIC-3 (product name; no catalogue number given)
Test: Automated patch-clamp electrophysiology functional assay (Assay A), IonFlux HT, whole-cell population patch
Format: cell-based
Experimental: The α7 nAChR positive allosteric modulator (PAM) activity of the present compounds may be tested using assays known in the art. The α7 nAChR PAMs described herein have activities in an automated patch-clamp electrophysiology functional assay as described in the examples. The assay was performed using the IonFlux HT in a whole-cell, population patch configuration. See Golden et al. Assay Drug Dev. Technol. (2011) 9:608-619. The compounds were assessed for their ability to modulate the function of the human α7 nAChR stably expressed in a HEK cell line both in the presence, and in the absence of the natural α7 agonist acetylcholine. By performing a series of such measurements at different concentrations, the effective concentration of the α7 nAChR PAMs (EC50) was determined. See Spencer et al. Assay Drug Dev. Technol. (2012) 10:313-324.
Direct activation of α7 (agonism), and potentiation of acetylcholine-evoked α7 currents was determined as follows:
Automated Patch-Clamp Electrophysiology Functional Assay (Assay A)
Automated patch-clamp electrophysiology was performed using the IonFlux HT (Fluxion Biosciences Inc., San Francisco, Calif.) in the whole-cell, population patch configuration. Test compounds were assessed for their ability to modulate the function of the α7 nicotinic acetylcholine receptor both in the presence, and in the absence of the natural α7 agonist acetylcholine. A HEK cell line stably expressing both human RIC-3 and human α7 (PrecisION hnAChR α7/RIC-3, Eurofins Pharma, St. Charles, Mo.) was cultured in 175 cm^2 triple-layer tissue culture flasks to no more than 90% confluency in DMEM/F-12 growth media supplemented with 10% heat-inactivated fetal bovine serum, 1% non-essential amino acids, 0.625 μg/mL Puromycin, and 400 μg/mL Geneticin. Immediately prior to assay, cells were detached by first aspirating growth media, rinsing with Dulbecco's phosphate buffered saline, and then adding 10 mL of Accutase (Innovative Cell Technologies, San Diego, Calif.) to the flask and then incubating at 37° C. for 5 minutes. Detached cells were then recovered by the addition of 40 mL of CHO-serum-free media supplemented with 25 mM HEPES, and rocked gently in a 50 mL conical tube for 20 minutes prior to patch-clamp assay. After recovery, cells were pelleted by centrifugation at 1,000 RPM for 1 minute in a compact bench top centrifuge; recovery media was aspirated and cells were resuspended in external recording solution (150 mM NaCl, 5 mM KCl, 2 mM CaCl2, 1 mM MgCl2, 10 mM HEPES, 12 mM dextrose) to a density of 5.0×10^6 cells/mL. The cell suspension was added to the cell inlet wells on an IonFlux HT population patch plate which had previously been rinsed and primed with deionized H2O. Test compounds were serially diluted in DMSO and then resuspended to the final test concentration in external recording solution, with, or without 40 μM acetylcholine added to the external recording solution; test compounds were then transferred to the IonFlux HT population patch plate. Internal recording solution (110 mM TrisPO4, 28 mM TrisBase, 0.1 mM CaCl2, 2 mM MgCl2, 11 mM EGTA, 4 mM MgATP) was added to the internal recording solution inlet wells on the IonFlux HT patch plate previously loaded with cells and test compounds, and the plate loaded into the IonFlux HT instrument. A protocol was executed on the IonFlux HT to trap the cells, break into the cells, and establish the whole-cell recording configuration; cells were voltage-clamped at a holding potential of −60 mV for the duration of the experiment, all experiments were conducted at room temperature, and the IonFlux HT injection pressure was 8 psi for solution applications. Upon establishing the whole-cell configuration, external recording solution was perfused into the recording chambers for 120 seconds and then 40 μM acetylcholine was applied for 1 second and immediately washed off with external recording solution for 60 seconds. […]

[1] = HEK cell line stably expressing human α7 and human RIC-3, 40 μM acetylcholine, holding potential −60 mV, room temperature, read-out: α7 nAChR EC50
[2] = automated patch-clamp electrophysiology functional assay (Assay A), potency class by EC50, read-out: α7 nAChR Potency

T1 sequence (P36544 23-502): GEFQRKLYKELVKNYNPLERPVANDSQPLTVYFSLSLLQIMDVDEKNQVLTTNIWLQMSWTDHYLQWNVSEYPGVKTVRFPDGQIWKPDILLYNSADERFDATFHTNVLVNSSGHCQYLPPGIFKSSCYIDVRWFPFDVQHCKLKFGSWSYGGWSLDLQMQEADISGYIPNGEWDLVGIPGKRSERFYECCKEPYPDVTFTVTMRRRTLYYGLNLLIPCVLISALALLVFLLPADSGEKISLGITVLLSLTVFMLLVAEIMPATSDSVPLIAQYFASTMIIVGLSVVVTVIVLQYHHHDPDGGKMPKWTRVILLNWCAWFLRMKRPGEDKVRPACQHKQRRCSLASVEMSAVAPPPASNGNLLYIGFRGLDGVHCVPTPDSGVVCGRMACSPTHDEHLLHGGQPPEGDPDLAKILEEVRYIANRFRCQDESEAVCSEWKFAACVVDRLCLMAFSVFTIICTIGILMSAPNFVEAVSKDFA

Row | Compound | EC50 [1] [nM] | EC50 [2] [nM]
1 | CC1(c2ccc(S(N)(=O)=O)cc2)CC1c1nc(-c2ccc(F)cc2F)no1 (centres unmarked) [Example E4] | 1700 | 500 to 5000
2 | Cc1cc(C2C(c3nc(-c4ccccc4)no3)C2(C)C)ccc1S(N)(=O)=O (single isomer, unassigned) [Example M8] |  | 5000 to 50000
3 | CC(C)c1csc([C@H]2[C@H](c3ccc(S(N)(=O)=O)cc3)C2(C)C)n1 [Example K11] | 1100 | 500 to 5000
4 | NS(=O)(=O)c1ccc(C2C(c3nc(-c4ccccc4)no3)C2(Cl)Cl)cc1 (racemic) [Example M9] | 140 | 100 to 500
5 | CC1(C)[C@@H](c2ccc(S(N)(=O)=O)cc2)[C@@H]1c1noc(-c2ccncc2C(F)(F)F)n1 [Example I20] | 450 | 
6 | CC1(C)[C@@H](c2ccc(S(N)(=O)=O)cc2)[C@@H]1c1nc(-c2cccc(F)c2)cs1 [Example K10] | 3900 | 500 to 5000
7 | NS(=O)(=O)c1ccc([C@@H]2C[C@H]2c2ncc(C3CCCC3)s2)cc1 [Example K15] |  | 100 to 500
8 | 4-{(1S,3S)-3-[2-(3-Fluorophenyl)-1-methyl-1H-imidazol-4-yl]-2,2-dimethylcycloproyl}benzenesulfonamide [Example 35] | 4400 | 500 to 5000
9 | NS(=O)(=O)c1ccc(C2C(c3cnc(-c4ccccc4)o3)C2(F)F)cc1 (racemic) [Example M1] |  | 500 to 5000
10 | CC1(C)[C@H](c2ccc(S(N)(=O)=O)cc2)[C@H]1c1nc(C2CC2)co1 [Example J5] |  | 500 to 5000
11 | CC1(C)[C@H](c2ccc(S(N)(=O)=O)cc2)[C@H]1c1nc(-c2ccc(F)cc2C(F)(F)F)no1 [Example A2] | 1700 | 500 to 5000
12 | CC1(c2nc(-c3ccc(F)cc3F)no2)CC1c1ccc(S(N)(=O)=O)cc1 (centres unmarked) [Example E3] | 6900 | 5000 to 50000
13 | CC1(C)[C@H](c2ccc(S(N)(=O)=O)cc2)[C@H]1c1nnc(C2CCCCC2)s1 [Example F7] |  | 500 to 5000
14 | Cc1cccc(F)c1-c1noc([C@@H]2C[C@H]2c2ccc(S(N)(=O)=O)cc2)n1 [Example C11] |  | 100 to 500
15 | Cc1cc(S(N)(=O)=O)ccc1[C@H]1C(c2nc(-c3ccccc3)no2)C1(C)C (single isomer, unassigned; enantiomer a) [Example 38, 4-[trans-2,2-Dimethyl-3-(3-phenyl-1,2,4-oxadiazol-5-yl)cyclopropyl]-3-methylbenzenesulfonamide, enantiomer A] | 4300 | 500 to 5000
16 | CC1(C)[C@@H](c2ccc(S(N)(=O)=O)cc2)[C@@H]1c1nc(-c2cc(F)ccc2F)co1 [Example K2] | 1600 | 500 to 5000
17 | CC(Oc1cccc(Cl)c1)c1nc(C2C(c3ccc(S(N)(=O)=O)cc3)C2(C)C)no1 (centres unmarked) [Example I2] |  | ≤ 100
